Results taken from patent publication US20090169700A1, “Healthy Food Product” (priority 2006, published 2009).
Ends that are not written are not given here.

Experiment: Water solubility at 20° C. and pH 6.5 (turbid appearance, 10 mg peptide in 10 ml de-mineralised water)
Type: physicochemical
Protocol: Peptides for use in food products according to the invention are water-insoluble in water at 20° C. and a pH of 6.5. This can for example be evidenced by mixing 10 mg of the peptide into 10 ml of de-mineralised water at 20° C. and pH 6.5, and stirring. A (measurable) turbid appearance of the solution after stirring is indicative of the fact that the peptide is water-insoluble.

Row | Peptide category (water solubility) | Molecule
1 | Soluble peptides | DDDDDD [DDDDDD]
2 | Soluble peptides | VEWEME [VEWEME]
3 | Insoluble peptides | LLLLLL [LLLLLL]
4 | Insoluble peptides | AAAAAAAA [AAAAAAAA]
5 | Soluble peptides | EAEWEY [EAEWEY]
6 | Soluble peptides | GSGGSG [GSGGSG]
7 | Insoluble peptides | C[C@H](N)C(=O)N[C@@H](C)C(=O)N[C@@H](C)C(=O)N[C@@H](C)C(=O)N[C@@H](C)C(=O)N[C@@H](C)C(=O)O [AAAAAA]
